According to patent publication EP0018104A2, “Tetrahydroisoquinolines, their production and the compounds and pharmaceutical compositions containing them for use in the prevention or treatment of hypertension” (Takeda Chemical Industries, Ltd., priority 1979, dated 1980):

Molecular target: T1, angiotensin I converting enzyme (ACE) (Oryctolagus cuniculus, UniProt P12822)
T1 construct: prepared from the lungs of albino rabbit according to the method described by Wallace et al; from tissue; host or cells: lungs of albino rabbit
T1 sequence (P12822 34-1310): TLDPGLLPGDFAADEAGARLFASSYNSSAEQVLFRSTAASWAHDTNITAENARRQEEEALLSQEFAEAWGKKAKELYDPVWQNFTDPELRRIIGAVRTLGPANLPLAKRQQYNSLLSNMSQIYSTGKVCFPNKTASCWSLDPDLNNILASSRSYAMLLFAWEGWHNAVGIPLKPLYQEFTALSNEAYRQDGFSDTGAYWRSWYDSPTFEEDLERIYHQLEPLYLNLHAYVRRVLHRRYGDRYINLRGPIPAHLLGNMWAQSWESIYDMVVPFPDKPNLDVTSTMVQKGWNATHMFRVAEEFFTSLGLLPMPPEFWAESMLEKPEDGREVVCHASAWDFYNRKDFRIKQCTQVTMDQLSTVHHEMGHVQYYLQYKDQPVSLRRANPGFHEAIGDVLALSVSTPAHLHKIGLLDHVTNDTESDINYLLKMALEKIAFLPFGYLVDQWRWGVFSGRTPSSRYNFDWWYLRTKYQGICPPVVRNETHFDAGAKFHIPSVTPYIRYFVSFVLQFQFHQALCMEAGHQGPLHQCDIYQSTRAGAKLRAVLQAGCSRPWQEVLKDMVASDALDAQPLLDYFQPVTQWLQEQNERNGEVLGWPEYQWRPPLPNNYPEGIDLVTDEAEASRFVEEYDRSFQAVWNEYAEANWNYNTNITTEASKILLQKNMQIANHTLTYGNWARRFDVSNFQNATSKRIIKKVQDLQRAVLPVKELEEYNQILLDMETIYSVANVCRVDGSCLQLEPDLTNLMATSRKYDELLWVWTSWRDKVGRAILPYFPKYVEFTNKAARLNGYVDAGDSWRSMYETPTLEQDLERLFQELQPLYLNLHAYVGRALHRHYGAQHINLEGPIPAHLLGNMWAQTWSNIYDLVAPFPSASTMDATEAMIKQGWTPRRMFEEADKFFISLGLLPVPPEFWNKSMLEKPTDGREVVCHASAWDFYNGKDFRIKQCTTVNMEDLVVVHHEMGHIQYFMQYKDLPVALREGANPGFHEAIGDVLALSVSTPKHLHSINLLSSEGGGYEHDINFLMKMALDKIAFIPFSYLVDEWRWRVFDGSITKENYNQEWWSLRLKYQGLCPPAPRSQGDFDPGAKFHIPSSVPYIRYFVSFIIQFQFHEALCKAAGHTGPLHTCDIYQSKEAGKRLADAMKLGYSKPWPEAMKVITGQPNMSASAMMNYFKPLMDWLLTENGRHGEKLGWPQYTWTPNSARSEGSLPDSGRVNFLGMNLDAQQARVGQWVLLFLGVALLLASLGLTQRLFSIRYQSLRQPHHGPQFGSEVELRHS
Experiment: Inhibition of angiotensin I converting enzyme (HHL substrate, hippuric acid colorimetry, modified Cushman method)
Format: biochemical, albino rabbit
Conditions: ACE from rabbit lung, 37°C, one hour, read-out: Inhibitory Activity on ACE (%); for inhibition at 1 µM: Concentration 1 µM; for inhibition at 10 µM: Concentration 10 µM
Method: Inhibitions of Angiotensin I Converting Enzyme by the Compounds of this Invention.
The experiment was conducted in accordance with a modification of the method described by Cushman et al. [Biochemical Pharmacology, Vol. 20, p1637(1971)] using an angiotensin I converting enzyme (ACE) prepared from the lungs of albino rabbit according to the method described by Wallace et al. [American Journal of Physiology, Vol 234, page R141(1978)]. That is, using hippuryl-L-histidyl-L-leucin (HHL) as the substrate, the ACE inhibitory activity was determined in terms of percentage inhibitation on the amount of hippurie acid produced by ACE when the present compound was added. A solution of the compound of the present invention dissolved in an 0.02 to 2% dimethyl sulfoxide-500 mMpotassium phosphate buffer solution (pH 8.3, containing 300 mM sodium chloride) was added to 100 µℓ of ACE (protein concentration, 20 mg/mℓ) and 100 µℓ of 1.25 mM HHL. In this experiment a potassium phosphate buffer solution containing dimethyl sulfoxide at a concentration equal to that of the test solution was used as a control. After incubating the solution at 37°C for one hour, 150 µℓ of 1N hydrochloric acid were added to the solution to terminate the reaction. After 1 mℓ of ethyl acetate was added, the solution was centrifuged at 3000 r.p.m. for 10 minutes. An 0.5 mℓ aliquot was separated from the ethyl acetate layer and dried at a temperature below 50°C under a nitrogen. gas stream. The residue was mixed with mℓ of 1M aqueous sodium chloride and the mixture was subjected to colorimetry at a wavelength of 228 nm.

inhibition at 1 µM [%] | inhibition at 10 µM [%] | SMILES
69 | 93 | CC(=O)SCC(C)C(=O)N1Cc2cc(Br)ccc2CC1C(=O)O (centres unmarked) [Example 42, 2-(3-acetylthio-2-methylpropiony)-7-tromo-1,2,3,4-tetrahydroisoquinoline-3-carboxylic acid]
66 | 97 | CC(=O)SCC(C)C(=O)N1Cc2cc(N3CCCCC3)ccc2CC1C(=O)O (centres unmarked) [Example 44, 2-(3-acetylthio-2-methylpropionyl)-7-piperidino-1,2,3,4-tetrahydroisoquinoline-3-carbozylic acid]
60 | 82 | CC(CS)C(=O)N1Cc2cc3c(cc2C[C@H]1C(=O)O)OCO3 (stereo partly drawn) [Example 52, (3S)-2-(3-mercapto-2-methylpropionul)-1,7-mezhylene-dioxy-1,2,3,4-tetrahydroisoquinoline-3-earboxylie acid]
71 | 77 | CC(C)(C)c1ccc2c(c1)CN(C(=O)C(CS)CS)C(C(=O)O)C2 (centres unmarked) [Example 71, 7-tert-butyl-2-(3-mercapto-2-mereaptomethylprionyl)-1,2,3,4-tetrahydroisoquinoline-3-carboxylic acid]
